Measurements taken from PMC4914680 (Antimicrobial Agents and Chemotherapy, 2016).
“Also recorded” adds a separate entry of the source. Like-named read-outs stand apart in the source and are kept apart here.

Legend:
[1] = system: HIV-1 NL4-3 ΔV370 variant (NLRepRlucP373S/Δ370); format: cell-based
[2] = system: HIV-LAI envelope-pseudotyped RepRlucP373SΔenv virus; assay: Two-stage single-cycle pseudotype assay (HIV-1 entry assay); format: cell-based
HIV-1 gp160 = target: T1, HIV-1 gp160 (Human immunodeficiency virus type 1 group M subtype B, UniProt P04578); assay: HIV-1 cell fusion assay; format: cell-based
T1 construct: expressed in transfected cells; host or cells: NL-TOE donor cells (target cells: HeLa C14)

HIV-1 NL4-3 = assay: Time-of-addition study, NL4-3-infected B6 cells; format: cell-based; details: single cycle; for effect on luciferase signal by time of addition: 24 h postinfection; for time postinfection at which effectiveness begins to be lost: >100-fold EC50
[3] = system: subtype B gag/pr recombinant viruses; assay: Multiple-cycle Gag/Pr phenotyping assay; format: cell-based, HIV-1
[4] = system: PI (54V, 82A, 84V 84V) resistant virus; format: cell-based, HIV-1
[5] = system: NRTI (41L, 67N, 215F, 219E, 69N), AZT-resistant virus 7324-1; format: cell-based, HIV-1
[6] = system: INI (140S, 148H) resistant virus (NLRepRluc-G140S/Q148H); format: cell-based, HIV-1
[7] = system: NNRTI (103N, 181C) resistant virus; format: cell-based, HIV-1
[8] = system: NRTI (184V) resistant virus (LAI M184V); format: cell-based, HIV-1
[9] = system: V370M virus (recombinant virus with gag/pr genes from a clinical isolate); assay: microbe, parasite or virus in culture; format: cell-based, HIV-1; details: Human immunodeficiency virus 1, MT2, read-out: EC50 (SD)
[10] = system: PI (46I, 82F, 84V, 90 M) resistant virus; format: cell-based, HIV-1
[11] = target: WT HIV-1 VLPs, p25 to p24 (CA/SP1) cleavage (Human immunodeficiency virus type 1 group M subtype B, UniProt P03348); assay: HIV-1 VLP protease cleavage assay; format: biochemical; details: Western blot
HIV-1 Gag (WT LAI VLPs) = HIV-1 Gag (WT LAI VLPs) (Human immunodeficiency virus type 1 group M subtype B, UniProt P03348); assay: [3H]BMS-955176-Gag binding (SPA); details: raltegravir at 10 μM; data not shown
[12] = Human immunodeficiency virus 1, NL43, MT2
[13] = Human immunodeficiency virus 1, read-out: EC50 (mean), sublibrary, None (WT), n=21
[14] = Human immunodeficiency virus 1, read-out: EC50 (mean), sublibrary, T371A/Q/N/S/TT, n=4
[15] = Human immunodeficiency virus 1, read-out: EC50 (mean), sublibrary, V362I, n=3
[16] = Human immunodeficiency virus 1, read-out: EC50 (mean), sublibrary, V370A + ΔT371, n=3
[17] = Human immunodeficiency virus 1, read-out: EC50 (mean), sublibrary, V370A, n=3
[18] = Human immunodeficiency virus 1, read-out: EC50 (mean), sublibrary, V370I/L/T, n=3
[19] = Human immunodeficiency virus 1, read-out: EC50 (mean), sublibrary, V370 M, n=5
[20] = Human immunodeficiency virus 1, NL43, MT2, read-out: EC50 (SD)

Cc1c(O)cccc1C(=O)N[C@@H](CSc1ccccc1)[C@H](O)CN1C[C@H]2CCCC[C@H]2C[C@H]1C(=O)NC(C)(C)C [NFV]
EC50 [1, 12]: 5 nM | inhibition of luciferase, compound added at stage 1 (virus production) [2]: luciferase activity was inhibited | inhibition of luciferase, compound added at stage 2 (infection) [2]: luciferase production was not inhibited | EC50 (HIV-1 gp160): > 2000 nM | effect on luciferase signal by time of addition (HIV-1 NL4-3): had no effect when added at any time point

C=C(C)[C@@H]1CC[C@]2(C(=O)NCCc3ccccn3)CC[C@]3(C)[C@H](CC[C@@H]4[C@@]5(C)CC=C(c6ccc(C(=O)O)cc6)C(C)(C)[C@@H]5CC[C@]43C)[C@@H]12 [BMS-2]
EC50 [3, 13]: 14 nM | EC50 [3, 14]: 49 nM | EC50 [3, 15]: 29 nM | EC50 [3, 16]: 629 nM | EC50 [3, 17]: 38 nM | EC50 [3, 18]: 26 nM | EC50 [3, 19]: 76 nM | EC50 [1, 20]: 415 nM

COC(=O)N[C@H](C(=O)N[C@@H](Cc1ccccc1)[C@@H](O)CN(Cc1ccc(-c2ccccn2)cc1)NC(=O)[C@@H](NC(=O)OC)C(C)(C)C)C(C)(C)C [Atazanavir]
Fold change in EC50 (SD) relative to parental strain [4]: 39 | Fold change in EC50 (SD) relative to parental strain [5]: 2.27 (0.02) | Fold change in EC50 (SD) relative to parental strain [6]: 1.0 (0.21) | EC50 [1, 12]: 3.8 nM | Fold change in EC50 (SD) relative to parental strain [7]: 0.93 (0.03) | Fold change in EC50 (SD) relative to parental strain [8]: 1.1 (0.1) | EC50 [9]: 2.3 nM

COc1ccnc2[nH]cc(C(=O)C(=O)N3CCN(C(=O)c4ccccc4)C[C@H]3C)c12 [BMS-378806]
inhibition of luciferase, compound added at stage 1 (virus production) [2]: inhibitory when added at either stage 1 or 2 | inhibition of luciferase, compound added at stage 2 (infection) [2]: inhibitory when added at either stage 1 or 2 | EC50 (HIV-1 gp160; cell-cell fusion, luciferase, read-out: EC50): 0.9 nM | effect on luciferase signal by time of addition (HIV-1 NL4-3): fully inhibitory (0% of control) only when added at the time of infection | time postinfection at which effectiveness begins to be lost (HIV-1 NL4-3): ≤ 4 h

C[C@H](Cn1cnc2c(N)ncnc21)OCP(=O)(O)O [Tenofovir]
EC50 [1, 12]: 7.2 nM | EC50 [9]: 5 nM

Cc1cn([C@H]2C[C@H](N=[N+]=[N-])[C@@H](CO)O2)c(=O)[nH]c1=O [Zidovudine]
Fold change in EC50 (SD) relative to parental strain [5]: 79 (5) | Fold change in EC50 (SD) relative to parental strain [6]: 0.82 (0.41) | Fold change in EC50 (SD) relative to parental strain [7]: 1.03 (0.17) | Fold change in EC50 (SD) relative to parental strain [8]: 0.78 (0.03)

C=C(C)[C@@H]1CC[C@]2(C(=O)O)CC[C@]3(C)[C@H](CC[C@@H]4[C@@]5(C)CC=C(c6ccc(C(=O)O)cc6)C(C)(C)[C@@H]5CC[C@]43C)[C@@H]12 [BMS-1]
EC50 [1, 20]: > 6000 nM

Cc1ccnc2c1NC(=O)c1cccnc1N2C1CC1 [Nevirapine]
Fold change in EC50 (SD) relative to parental strain [10]: 0.83 (0.08) | Fold change in EC50 (SD) relative to parental strain [5]: 1.6 (0.2) | Fold change in EC50 (SD) relative to parental strain [6]: 0.89 (0.59) | EC50 [1, 12]: 170 nM | Fold change in EC50 (SD) relative to parental strain [7]: >131 (108) | Fold change in EC50 (SD) relative to parental strain [8]: 1.3 (0.2) | EC50 [9]: 930 nM

C=C(C)[C@@H]1CC[C@]2(C(=O)O)CC[C@]3(C)[C@H](CC[C@@H]4[C@@]5(C)CC[C@H](OC(=O)CC(C)(C)C(=O)O)C(C)(C)[C@@H]5CC[C@]43C)[C@@H]12 [BVM, 3-O-(3′,3′-dimethylsuccinyl)betulinic acid, reference compound]
EC50 [3, 13]: 14 nM | EC50 [3, 14]: 113 nM | EC50 [3, 15]: 36 nM | EC50 [3, 16]: > 4000 nM | EC50 [3, 17]: 227 nM | EC50 [3, 18]: 251 nM | EC50 [3, 19]: 903 nM | EC50 [1, 12]: ≥ 10000 nM | EC50 [1, 20]: > 10000 nM | inhibition of conversion of VLP p25 to p24 [11]: inhibited the conversion of HIV-1 WT VLP p25 to p24 in a dose-dependent manner | inhibition of luciferase, compound added at stage 1 (virus production) [2]: inhibiting luciferase production only when added in the first stage; also recorded: does not attain complete inhibition relative to NFV | inhibition of luciferase, compound added at stage 2 (infection) [2]: inhibiting luciferase production only when added in the first stage | competition for the binding of [3H]BMS-955176 (HIV-1 Gag (WT LAI VLPs)): A similar result was obtained by displacement | effect on luciferase signal by time of addition (HIV-1 NL4-3): had no effect when added at any time point

C=C(C)[C@@H]1CC[C@]2(C(=O)NCCN(C)C)CC[C@]3(C)[C@H](CC[C@@H]4[C@@]5(C)CC=C(c6ccc(C(=O)O)cc6)C(C)(C)[C@@H]5CC[C@]43C)[C@@H]12 [BMS-3]
EC50 [1, 20]: 31 nM

O=C1Nc2ccc(Cl)cc2[C@@](C#CC2CC2)(C(F)(F)F)O1 [Efavirenz]
Fold change in EC50 (SD) relative to parental strain [10]: 0.20 (0.01) | Fold change in EC50 (SD) relative to parental strain [4]: 1.4 | Fold change in EC50 (SD) relative to parental strain [6]: 0.60 (0.3) | Fold change in EC50 (SD) relative to parental strain [7]: 55 (2.2) | Fold change in EC50 (SD) relative to parental strain [8]: 1.0 (0.1) | time postinfection at which effectiveness begins to be lost (HIV-1 NL4-3): 6 h

Nc1ccn([C@@H]2CS[C@H](CO)O2)c(=O)n1 [Lamivudine]
EC50 [1, 12]: 470 nM

Cc1cc(/C=C/C#N)cc(C)c1Nc1ccnc(Nc2ccc(C#N)cc2)n1 [Rilpivirine]
Fold change in EC50 (SD) relative to parental strain [10]: 2.6 (0.8) | Fold change in EC50 (SD) relative to parental strain [6]: 1.0 (0.5) | Fold change in EC50 (SD) relative to parental strain [7]: 8.1 (1.5) | Fold change in EC50 (SD) relative to parental strain [8]: 2.0 (0.3)

Cc1nnc(C(=O)NC(C)(C)c2nc(C(=O)NCc3ccc(F)cc3)c(O)c(=O)n2C)o1 [Raltegravir]
Fold change in EC50 (SD) relative to parental strain [10]: 0.18 (0.07) | Fold change in EC50 (SD) relative to parental strain [6]: >340 (72) | EC50 [1, 12]: 3.4 nM | Fold change in EC50 (SD) relative to parental strain [7]: 1.8 (0.4) | Fold change in EC50 (SD) relative to parental strain [8]: 1.9 (0.6) | EC50 [9]: 3.3 nM | competition for the binding of [3H]BMS-955176 (HIV-1 Gag (WT LAI VLPs)): did not compete | time postinfection at which effectiveness begins to be lost (HIV-1 NL4-3): 8 h

CC(C)CN(C[C@@H](O)[C@H](Cc1ccccc1)NC(=O)O[C@H]1CO[C@H]2OCC[C@H]21)S(=O)(=O)c1ccc(N)cc1 [Darunavir]
Fold change in EC50 (SD) relative to parental strain [10]: 41 (1.9) | Fold change in EC50 (SD) relative to parental strain [4]: 2.3 | Fold change in EC50 (SD) relative to parental strain [6]: 1.1 (0.1) | EC50 [1, 12]: 4.5 nM | Fold change in EC50 (SD) relative to parental strain [7]: 0.90 (0.1) | Fold change in EC50 (SD) relative to parental strain [8]: 1.2 (0.4) | EC50 [9]: 2.3 nM
